Patent publication US10428026B2, “Pyridinone dicarboxamide for use as bromodomain inhibitors” (GlaxoSmithKline Intellectual Property (No.2) Limited, priority 2015, dated 2019)

biological target: T1, BRD4 BD2 (Homo sapiens, UniProt O60885, Y97A); experiment: BRD4 BD2 TR-FRET competition assay; format: binding; details: BRD4 BD2 TR-FRET; read-out: pIC50 in the BRD4 BD2 assay (converted)
T1 construct: BRD4 (1-477) (Y97A) and (Y390A); made in house; host or cells: E. coli (pET15b vector)

IC50, 1 to 100 µM:
CNC(=O)c1cc(C(=O)N[C@@H]2CCCC[C@H]2O)cn(Cc2ccccc2)c1=O (racemic) [Example 185, (+/−)-1-Benzyl-N5-((trans)-2-hydroxycyclohexyl)-N3-methyl-2-oxo-1,2-dihydropyridine-3,5-dicarboxamide]
CNC(=O)c1cc(C(=O)N[C@@H]2CCCC[C@@H]2O)cn(Cc2ccccc2)c1=O (racemic) [Example 186, (+/−)-1-Benzyl-N5-((cis)-2-hydroxycyclohexyl)-N3-methyl-2-oxo-1,2-dihydropyridine-3,5-dicarboxamide]
CNC(=O)c1cc(C(=O)NC[C@H]2CCC[C@@H]2O)cn(Cc2ccccc2)c1=O (racemic) [Example 196, (+/−)-1-Benzyl-N5-(((1R,2S)-2-hydroxycyclopentyl)methyl)-N3-methyl-2-oxo-1,2-dihydropyridine-3,5-dicarboxamide]
CNC(=O)c1cc(C(=O)NC[C@@H]2CC[C@@H](O)C2)cn(Cc2ccccc2)c1=O (racemic) [Example 198, (+/−)-1-Benzyl-N5-(((trans)-3-hydroxycyclopentyl)methyl) N3-methyl-2-oxo-1,2-dihydropyridine-3,5-dicarboxamide]
CNC(=O)c1cc(C(=O)NC[C@@H]2CC[C@H](O)C2)cn(Cc2ccccc2)c1=O (racemic) [Example 199, (+/−)-1-Benzyl-N5-(((cis)-3-hydroxycyclopentyl)methyl)-N3-methyl-2-oxo-1,2-dihydropyridine-3,5-dicarboxamide]
CNC(=O)c1cc(C(=O)NC[C@@H]2CCC[C@H](O)C2)cn(Cc2ccccc2)c1=O (racemic) [Example 206, (+/−)-1-Benzyl-N5-(((1R,3S)-3-hydroxycyclohexyl)methyl)-N3-methyl-2-oxo-1,2-dihydropyridine-3,5-dicarboxamide]
CCO[C@H]1C[C@H]1NC(=O)c1cc(C(=O)NC)c(=O)n(Cc2cccc(F)c2)c1 (racemic) [Example 208, (+/−)-N5-((cis)-2-ethoxycyclopropyl)-1-(3-fluorobenzyl)-N3-methyl-2-oxo-1,2-dihydropyridine-3,5-dicarboxamide]
CCO[C@H]1C[C@H]1NC(=O)c1cc(C(=O)NC)c(=O)n(Cc2cccc(C)c2)c1 (racemic) [Example 222, (+/−)-N5-((cis)-2-ethoxycyclopropyl)-N3-methyl-1-(3-methylbenzyl)-2-oxo-1,2-dihydropyridine-3,5-dicarboxamide]
CNC(=O)c1cc(C(=O)N[C@@H]2CC[C@H]2OC)cn(Cc2ccccc2)c1=O (racemic) [Example 243, (+/−)-1-Benzyl-N5-((trans)-2-methoxycyclobutyl)-N3-methyl-2-oxo-1,2-dihydropyridine-3,5-dicarboxamide]
CNC(=O)c1cc(C(=O)NC2CC2)cn(CC2CCCc3[nH]cnc32)c1=O (racemic) [Example 250, (+/−)-N5-Cyclopropyl-N3-methyl-2-oxo-1-((4,5,6,7-tetrahydro-1H-benzo[d]imidazol-4-yl)methyl)-1,2-dihydropyridine-3,5-dicarboxamide]
CNC(=O)c1cc(C(=O)N[C@@H]2C[C@H]2CO)cn(C(C)c2cccc(C)c2)c1=O (mixture of isomers) [Example 267, N5-((trans)-2-(Hydroxymethyl)cyclopropyl)-N3-methyl-2-oxo-1-((S*)-1-(m-tolyl)ethyl)-1,2-dihydropyridine-3,5-dicarboxamide]
CNC(=O)c1cc(C(=O)N[C@@H]2CCC[C@@H](O)C2)cn(Cc2ccccc2)c1=O (relative stereo) [Example 217, 1-Benzyl-N5-((1R*,3R*)-3-hydroxycyclohexyl)-N3-methyl-2-oxo-1,2-dihydropyridine-3,5-dicarboxamide]
CNC(=O)c1cc(C(=O)NC2CC2)cn(C(C)c2cccc(C)c2)c1=O (single isomer, unassigned) [Example 211, (S*)-N5-Cyclopropyl-N3-methyl-2-oxo-1-(1-(m-tolyl)ethyl)-1,2-dihydropyridine-3,5-dicarboxamide]
CNC(=O)c1cc(C(=O)NC2CC2)cn(C(C)c2ccccc2C)c1=O (single isomer, unassigned) [Example 213, (R*)-N5-Cyclopropyl-N3-methyl-2-oxo-1-(1-(o-tolyl)ethyl)-1,2-dihydropyridine-3,5-dicarboxamide]
CNC(=O)c1cc(C(=O)NC2CC2(C)C)cn(Cc2ccccc2)c1=O (single isomer, unassigned) [Example 248, (R*)-1-Benzyl-N5-(2,2-dimethylcyclopropyl)-N3-methyl-2-oxo-1,2-dihydropyridine-3,5-dicarboxamide]
CNC(=O)c1cc(C(=O)NC2CC2)cn(C(CO)c2ccccc2)c1=O (single isomer, unassigned) [Example 324, (R*)—N^5-Cyclopropyl-1-(2-hydroxy-1-phenylethyl)-N^3-methyl-2-oxo-1,2-dihydropyridine-3,5-dicarboxamide]
CNC(=O)c1cc(C(=O)NC2CCC2)cn(Cc2cnn(C)c2)c1=O [Example 163, N5-Cyclobutyl-N3-methyl-1-((1-methyl-1H-pyrazol-4-yl)methyl)-2-oxo-1,2-dihydropyridine-3,5-dicarboxamide]
CNC(=O)c1cc(C(=O)NC2CCC2c2ccccc2)cn(Cc2ccccc2)c1=O (stereo not shown) [Example 168, 1-Benzyl-N3-methyl-2-oxo-N5-(2-phenylcyclobutyl)-1,2-dihydropyridine-3,5-dicarboxamide]
CNC(=O)c1cc(C(=O)N[C@H]2C[C@@H](C(=O)O)C2)cn(Cc2ccccc2)c1=O [Example 169, (cis)-3-(1-Benzyl-5-(methylcarbamoyl)-6-oxo-1,6-dihydropyridine-3-carboxamido)cyclobutane-carboxylic acid]
CNC(=O)c1cc(C(=O)NC2CCC2)cn([C@@H](C)c2ccccc2)c1=O [Example 171, (S)-N5-Cyclobutyl-N3-methyl-2-oxo-1-(1-phenylethyl)-1,2-dihydropyridine-3,5-dicarboxamide]
CNC(=O)c1cc(C(=O)NC2(CC(C)C)CC2)cn(Cc2ccccc2)c1=O [Example 173, 1-Benzyl-N5-(1-isobutylcyclopropyl)-N3-methyl-2-oxo-1,2-dihydropyridine-3,5-dicarboxamide]
CCOC1CC(NC(=O)c2cc(C(=O)NC)c(=O)n(Cc3ccccc3)c2)C1OC (stereo not shown) [Example 177, 1-Benzyl-N5-(3-ethoxy-2-methoxycyclobutyl)-N3-methyl-2-oxo-1,2-dihydropyridine-3,5-dicarboxamide]
CCCC1(NC(=O)c2cc(C(=O)NC)c(=O)n(Cc3ccccc3)c2)CC1 [Example 178, 1-Benzyl-N3-methyl-2-oxo-N5-(1-propylcyclopropyl)-1,2-dihydropyridine-3,5-dicarboxamide]
CNC(=O)c1cc(C(=O)NC2CCC2)cn(Cc2ccc(C(=O)OC)cc2)c1=O [Example 180, Methyl 4-((5-(cyclobutylcarbamoyl)-3-(methylcarbamoyl)-2-oxopyridin-1(2H)-yl)methyl)benzoate]
CNC(=O)c1cc(C(=O)NC2CC2)cn(CCCc2ccccc2)c1=O [Example 190, N5-Cyclopropyl-N3-methyl-2-oxo-1-(3-phenylpropyl)-1,2-dihydropyridine-3,5-dicarboxamide]
CNC(=O)c1cc(C(=O)NCC2CCCCC2O)cn(Cc2ccccc2)c1=O (stereo not shown) [Example 194, 1-Benzyl-N5-((2-hydroxycyclohexyl)methyl)-N3-methyl-2-oxo-1,2-dihydropyridine-3,5-dicarboxamide]
CNC(=O)c1cc(C(=O)NC[C@H]2CC[C@H](O)CC2)cn(Cc2ccccc2)c1=O [Example 200, 1-Benzyl-N5-(((trans)-4-hydroxycyclohexyl)methyl)-N3-methyl-2-oxo-1,2-dihydropyridine-3,5-dicarboxamide]
CNC(=O)c1cc(C(=O)NC[C@H]2CC[C@@H](O)CC2)cn(Cc2ccccc2)c1=O [Example 201, 1-Benzyl-N5-(((cis)-4-hydroxycyclohexyl)methyl)-N3-methyl-2-oxo-1,2-dihydropyridine-3,5-dicarboxamide]
CNC(=O)c1cc(C(=O)NC2CC2CO)cn(Cc2cccc(C)c2F)c1=O (stereo not shown) [Example 214, 1-(2-Fluoro-3-methylbenzyl)-N5-(2-(hydroxymethyl)cyclopropyl)-N3-methyl-2-oxo-1,2-dihydropyridine-3,5-dicarboxamide]
CNC(=O)c1cc(C(=O)N[C@@H]2CCC[C@H](O)C2)cn(Cc2ccccc2)c1=O [Example 219, 1-Benzyl-N5-((1R,3S)-3-hydroxycyclohexyl)-N3-methyl-2-oxo-1,2-dihydropyridine-3,5-dicarboxamide]
CNC(=O)c1cc(C(=O)NC2CC2)cn(CC2COc3ccccc32)c1=O (stereo not shown) [Example 268, N5-Cyclopropyl-1-((2,3-dihydrobenzofuran-3-yl)methyl)-N3-methyl-2-oxo-1,2-dihydropyridine-3,5-dicarboxamide]
CNC(=O)c1cc(C(=O)N[C@H]2C[C@@H]2C)cn(Cc2cc(OC)ccn2)c1=O [Example 334, 1-((4-Methoxypyridin-2-yl)methyl)-N^3-methyl-N^5-((1S,2S)-2-methylcyclopropyl)-2-oxo-1,2-dihydropyridine-3,5-dicarboxamide]
CNC(=O)c1cc(C(=O)N[C@H]2C[C@@H]2C)cn(Cc2cc(C)ccn2)c1=O [Example 335, N^3-Methyl-N^5-((1S,2S)-2-methylcyclopropyl)-1-((4-methylpyridin-2-yl)methyl)-2-oxo-1,2-dihydropyridine-3,5-dicarboxamide]
CNC(=O)c1cc(C(=O)N[C@H]2C[C@@H]2C)cn(Cc2ccc(C(=O)O)cc2)c1=O [Example 339, 4-((3-(Methylcarbamoyl)-5-(((1S,2S)-2-methylcyclopropyl)carbamoyl)-2-oxopyridin-1(2H)-yl)methyl)benzoic acid]
